18 molecules from patent US9505742B2, “3,4-dihydro-2H-isoquinoline-1-one and 2,3-dihydro-isoindol-1-one compounds” (Hoffmann-La Roche Inc., priority 2013, dated 2016) can be followed below.

pEC50: −log10 of the molar value.

One assay has as its target T1, human CYP11B2 (Homo sapiens, UniProt P19099).
T1 construct: The expression plasmids contains the ORF for either human/cyno CYP11B1 or CYP11B2; expressed in transfected cells
T1 sequence (P19099 25-503): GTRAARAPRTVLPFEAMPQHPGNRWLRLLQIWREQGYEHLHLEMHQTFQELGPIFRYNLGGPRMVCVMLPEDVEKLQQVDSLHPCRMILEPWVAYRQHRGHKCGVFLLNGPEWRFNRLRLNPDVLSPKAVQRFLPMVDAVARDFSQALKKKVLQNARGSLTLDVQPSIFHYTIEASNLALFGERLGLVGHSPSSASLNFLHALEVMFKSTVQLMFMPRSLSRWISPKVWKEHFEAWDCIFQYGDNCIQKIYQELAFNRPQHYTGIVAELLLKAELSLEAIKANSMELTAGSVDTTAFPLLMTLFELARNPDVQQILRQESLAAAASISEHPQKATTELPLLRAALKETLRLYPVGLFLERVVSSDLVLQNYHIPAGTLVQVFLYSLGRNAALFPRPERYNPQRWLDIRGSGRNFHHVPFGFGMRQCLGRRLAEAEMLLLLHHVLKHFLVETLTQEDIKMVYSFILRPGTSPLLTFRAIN
The assay is described as follows: G-402 cellular enzyme assay, human CYP11B2 (aldosterone release, HTRF). The class given is cell-based. The conditions noted are these: G-402 cells expressing human CYP11B2; 1 μM Deoxycorticosterone. The source says:
(§1) Herein we identified the use of the G-402 cell line as a host cell to ectopically express (transiently or stably) enzymes of the CYP11 family. Specifically we developed stable G-402 cells expressing ectopically human CYP11B1, human CYP11B2, human CYP11A1, cynmolgus CYP11B1 or cynomolgus CYP11B2 enzyme activity. Importantly the identified cell line G-402 expresses co-factors (adrenodoxin and adrenodoxin reductase) important for the activity of the CYP11 family and no relevant enzyme activity of the CYP11 family (in comparison to H295R cells) was detected in these cells. Therefore the G-402 cell line is uniquely suited as a host cell for the ectopic expression of enzymes from the CYP11 family. G-402 cells can be obtained from ATCC (CRL-1440) and were originally derived from a renal leiomyoblastoma.
(§2) The expression plasmids contains the ORF for either human/cyno CYP11B1 or CYP11B2 under the control of a suitable promoter (CMV-promoter) and a suitable resistance marker (neomycin). Using standard techniques the expression plasmid is transfected into G-402 cells and these cells are then selected for expressing the given resistance markers. Individual cell-clones are then selected and assessed for displaying the desired enzymatic activity using 11-Deoxycorticosterone (Cyp11B2) or 11-Deoxycortisol (Cyp11B) as a substrate.
(§3) G-402 cells expressing CYP11 constructs were established as described above and maintained in McCoy's 5a Medium Modified, ATCC Catalog No. 30-2007 containing 10% FCS and 400 μg/ml G418 (Geneticin) at 37° C. under an atmosphere of 5% CO2/95% air. Cellular enzyme assays were performed in DMEM/F12 medium containing 2.5% charcoal treated FCS and appropriate concentration of substrate (0.3-10 uM 11-Deoxycorticosterone, 11-Deoxycortisol or Corticosterone). For assaying enzymatic activity, cells were plated onto 96 well plates and incubated for 16 h. An aliquot of the supernatant is then transferred and analyzed for the concentration of the expected product (Aldosterone for CYP11B2; Cortisol for CYP11B1). The concentrations of these steroids can be determined using HTRF assays from CisBio analyzing either Aldosterone or Cortisol.
(§4) Inhibition of the release of produced steroids can be used as a measure of the respective enzyme inhibition by test compounds added during the cellular enzyme assay. The dose dependent inhibition of enzymatic activity by a compound is calculated by means of plotting added inhibitor concentrations (x-axes) vs. measured steroid/product level (y-axes). The inhibition is then calculated by fitting the following 4-parameter sigmoidal function (Morgan-Mercer-Flodin (MMF) model) to the raw data points using the least squares method:
(§5) [formula] wherein, A is the maximum y value, B is the EC50 factor determined using XLFit, C is the minimum y value and D is the slope value.
(§6) EC50 values for compounds claimed herein were tested with the G402-based assay system described. Cyp11B2 enzyme activity was tested in presence of 1 μM Deoxycorticosterone and variable amounts of inhibitors; Cyp11B1 enzyme activity was tested in presence of 1 μM Deoxycortisol and variable amounts of inhibitors.
On the technique in general: In TR-FRET formats the signal depends on donor and acceptor labels being close together.

For the next assay, the target named is T2, human CYP11B1 (Homo sapiens, UniProt P15538).
T2 construct: The expression plasmids contains the ORF for either human/cyno CYP11B1 or CYP11B2; expressed in transfected cells
T2 sequence (P15538 25-503): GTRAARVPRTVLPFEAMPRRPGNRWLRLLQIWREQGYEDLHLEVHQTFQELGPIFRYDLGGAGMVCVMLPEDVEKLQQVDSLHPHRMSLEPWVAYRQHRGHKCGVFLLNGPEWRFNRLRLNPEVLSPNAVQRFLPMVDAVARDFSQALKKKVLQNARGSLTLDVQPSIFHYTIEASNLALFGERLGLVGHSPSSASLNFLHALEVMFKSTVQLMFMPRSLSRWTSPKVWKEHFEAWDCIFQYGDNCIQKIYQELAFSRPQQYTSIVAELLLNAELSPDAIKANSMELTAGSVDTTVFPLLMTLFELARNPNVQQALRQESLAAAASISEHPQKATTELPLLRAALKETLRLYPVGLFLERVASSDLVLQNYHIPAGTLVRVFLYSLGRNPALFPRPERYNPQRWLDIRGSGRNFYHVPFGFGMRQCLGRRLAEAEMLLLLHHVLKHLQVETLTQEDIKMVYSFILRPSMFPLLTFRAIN
The assay is described as follows: G-402 cellular enzyme assay, human CYP11B1 (cortisol release, HTRF). The class given is cell-based. Conditions: G-402 cells expressing human CYP11B1; 1 μM Deoxycortisol.
Excerpt: as §1, §2, §3, §4, §5, §6

For `CCCS(=O)(=O)N1CCC(F)(c2cncc(N3C(=O)c4ccc(Cl)cc4C3(C)C)c2)CC1` [Example 37, 5-Chloro-2-[5-(4-fluoro-1-propylsulfonyl-4-piperidyl)-3-pyridyl]-3,3-dimethyl-isoindolin-1-one], the pEC50 at human CYP11B2 was 8.70; at human CYP11B1, 7.01.
For `COc1ccc2c(n1)C(C)(C)N(c1cncc(C3(F)CCN(C(=O)c4cnn(C)c4)CC3)c1)C2=O` [Example 41, 6-[5-[4-Fluoro-1-(1-methylpyrazole-4-carbonyl)-4-piperidyl]-3-pyridyl]-2-methoxy-7,7-dimethyl-pyrrolo[3,4-b]pyridin-5-one] the same measures were 7.46 and 6.01.
For `CCCS(=O)(=O)N1CC(c2cncc(N3C(=O)c4ccc(Cl)cc4C3(C)C)c2)C1` [Example 34, 5-Chloro-3,3-dimethyl-2-[5-(1-propylsulfonylazetidin-3-yl)pyridin-3-yl]isoindol-1-one], in that order: 7.89 and 6.31.
Take `CC1(C)c2cc(Cl)ccc2C(=O)N1c1cncc(C2CCCN(S(C)(=O)=O)C2)c1` (single isomer, unassigned; (-)) [Example 6, (−)-5-chloro-3,3-dimethyl-2-[5-[(3S or 3R)-1-methylsulfonylpiperidin-3-yl]pyridin-3-yl]isoindol-1-one]: the pEC50 is 7.82 at human CYP11B2 and 6.48 on human CYP11B1.
For `COc1ccc2c(n1)C(C)(C)N(c1cncc(C3(F)CCN(S(=O)(=O)C4CC4)CC3)c1)C2=O` [Example 45, 6-[5-(1-Cyclopropylsulfonyl-4-fluoro-4-piperidyl)-3-pyridyl]-2-methoxy-7,7-dimethyl-pyrrolo[3,4-b]pyridin-5-one] the same measures were 7.52 and 5.90.
For `CCCS(=O)(=O)N1CCC(c2cncc(N3C(=O)c4ccc(Cl)cc4C3(C)C)c2)C1` (single isomer, unassigned; (+)) [Example 8, (+)-5-chloro-3,3-dimethyl-2-[5-[(3R or 3S)-1-propylsulfonylpyrrolidin-3-yl]pyridin-3-yl]isoindol-1-one], in that order: 8.40 and 6.96.
As for `CCCS(=O)(=O)N1CCC(c2cncc(N3C(=O)c4ccc(Cl)cc4C3(C)C)c2)C1` (single isomer, unassigned; (-)) [Example 9, (−)-5-chloro-3,3-dimethyl-2-[5-[(3S or 3R)-1-propylsulfonylpyrrolidin-3-yl]pyridin-3-yl]isoindol-1-one], the pEC50 on human CYP11B2 was 7.85; on human CYP11B1, 6.10.
On to `CCS(=O)(=O)N1CCC(c2cncc(N3C(=O)c4ccc(Cl)cc4[C@H]3C)c2)CC1` (single isomer, unassigned) [Example 24, (+)-(3R or 3S)-5-chloro-2-[5-(1-ethylsulfonylpiperidin-4-yl)pyridin-3-yl]-3-methyl-3H-isoindol-1-one], for which the figures for the pEC50 on human CYP11B2 and at human CYP11B1 were 8.70 and 6.36, respectively.
For `Cc1ccncc1C(=O)N1CCC(c2cncc(N3C(=O)c4ccc(Cl)cc4C3(C)C)c2)CC1` [Example 18, 5-Chloro-3,3-dimethyl-2-[5-[1-(4-methylpyridine-3-carbonyl)piperidin-4-yl]pyridin-3-yl]isoindol-1-one], in that order: 7.80 and 6.66.
For `CC(C)S(=O)(=O)N1CCC(F)(c2cncc(N3C(=O)c4ccc(Cl)cc4C3(C)C)c2)C1` (stereo not drawn) [Example 14, 5-Chloro-2-[5-(3-fluoro-1-propan-2-ylsulfonylpyrrolidin-3-yl)pyridin-3-yl]-3,3-dimethylisoindol-1-one] the same measures were 8.40 and 6.63.
Regarding `Cc1ccncc1C(=O)N1CCC(c2cncc(N3Cc4cc(Cl)ccc4C3=O)c2)CC1` [Example 23, 5-Chloro-2-[5-[1-(4-methylpyridine-3-carbonyl)piperidin-4-yl]pyridin-3-yl]-3H-isoindol-1-one], the pEC50 is 7.01 at human CYP11B2 and 6.02 on human CYP11B1.
For `CCS(=O)(=O)N1CC(c2cncc(N3C(=O)c4ccc(Cl)cc4C3(C)C)c2)C1` [Example 32, 5-Chloro-2-[5-(1-ethylsulfonylazetidin-3-yl)pyridin-3-yl]-3,3-dimethylisoindol-1-one], in that order: 8.15 and 6.21.
Regarding `Cc1ccncc1C(=O)N1CCC(c2cncc(N3C(=O)c4ccc(Cl)cc4[C@H]3C)c2)CC1` (single isomer, unassigned) [Example 28, (+)-(3R or 3S)-5-chloro-3-methyl-2-[5-[1-(4-methylpyridine-3-carbonyl)piperidin-4-yl]pyridin-3-yl]-3H-isoindol-1-one], the pEC50 at human CYP11B2 is 8.40; at human CYP11B1, 6.78.
For `CC1(C)c2cc(Cl)ccc2C(=O)N1c1cncc(C2CCN(C(=O)c3ccncc3Cl)CC2)c1` [Example 19, 5-Chloro-2-[5-[1-(3-chloropyridine-4-carbonyl)piperidin-4-yl]pyridin-3-yl]-3,3-dimethylisoindol-1-one] the same measures were 7.68 and 5.87.
For `CCS(=O)(=O)N1CCC(F)(c2cncc(N3C(=O)c4ccc(Cl)cc4C3(C)C)c2)CC1` [Example 30, 5-Chloro-2-[5-(1-ethylsulfonyl-4-fluoropiperidin-4-yl)pyridin-3-yl]-3,3-dimethylisoindol-1-one] the same measures were 9.00 and 6.82.
On to `CC(C)S(=O)(=O)N1CCC(c2cncc(N3Cc4cc(Cl)ccc4C3=O)c2)CC1` [Example 22, 5-Chloro-2-[5-(1-propan-2-ylsulfonylpiperidin-4-yl)pyridin-3-yl]-3H-isoindol-1-one], for which the negative logarithm of the EC50 (pEC50) on human CYP11B2 was 7.08; on human CYP11B1, 5.13.
On to `Cc1ccncc1C(=O)N1CCC(c2cncc(N3C(=O)c4ccc(Cl)cc4[C@@H]3C)c2)CC1` (single isomer, unassigned) [Example 29, (−)-(3S or 3R)-5-chloro-3-methyl-2-[5-[1-(4-methylpyridine-3-carbonyl)piperidin-4-yl]pyridin-3-yl]-3H-isoindol-1-one], for which the pEC50 on human CYP11B2 is 8.05; at human CYP11B1 it was 6.93.
For `CC(C)S(=O)(=O)N1CCC(F)(c2cncc(N3C(=O)c4ccc(C#N)cc4C3(C)C)c2)CC1` [Example 39, 2-[5-(4-Fluoro-1-isopropylsulfonyl-4-piperidyl)-3-pyridyl]-3,3-dimethyl-1-oxo-isoindoline-5-carbonitrile], the pEC50 is 8.05 on human CYP11B2 and 5.73 on human CYP11B1.

Usually pEC50 stands for −log10 of the EC50, conventionally taken in molar units. Read a low pEC50 as a large EC50.
